Measurements from patent publication US12565680B2, “Cancer neoantigens and their utilities in cancer vaccines and TCR-based cancer immunotherapy” (THE METHODIST HOSPITAL SYSTEM, priority 2018, dated 2026).

Assays:
[1] = system: primary human T cells; details: OKT3 activated T cells, day 12, CD45RO^− CCR7^+ CD62L^+
[2] = system: Raji lymphoma cells; details: mouse
Source text: (§1) Both CAR and luciferase were transduced into activated T cells and transfer into NSG mice that have been injected with Raji lymphoma cells.

[3] = system: CAR-T cells
Source text: as §1

[4] = system: A2ESO TCR-T cells
Protocol: Activated human T cells were transduced on day 2 and day 3 with A2ESO TCR viruses that were packaged by PG13-A2ESO TCR clone. […] To investigate the functional change of A2ESO TCR-T cells after 2-PCPA treatment, intracellular staining (ICS) was performed to check the expression of effector cytokines, targeting IL-2, IFN-γ and TNF-α. […] Another key feature of less-differentiated T cell is increased oxidative metabolism and mitochondrial respiratory capacity.

[5] = system: A2ESO TCR-transduced CD4^+ T cells
Protocol: It was hypothesized that the improvement killing ability of CD4^+ T cells due to ThPOK knockdown is procedure of T-cell reprogramming via epigenetic regulation. To distinguish how ThPOK reprogrammed CD4^+ T cells to cytolytic CD4^+ T cells, a screening of A2ESO TCR-transduced CD4^+ T cells treated by various epigenetic inhibitors was performed.

[6] = system: MDA-MB-231 cells expressing HLA-A2 and NY-ESO-1; details: mouse
Source text: A breast cancer model was established using MDA-MB-231 cells expressing HLA-A2 and NY-ESO-1 antigen in 8 weeks old NOD-scid IL2Rγnull (NSG) mice.

[7] = system: 136TIL; assay: Intracellular staining of IFN-γ after neoantigen peptide stimulation, 136TIL; type: cell-based, human
Source text: Among them, MAPK9 and ANKIB1 neoantigen-specific CD4^+ T cells accounted for 14.3% and 5.2% in the total T cell population, which accounted for 58% and 21% in the total tumor-reactive CD4^+ T cell population, respectively (FIG. 11B). By contrast, other neoantigen-specific CD4^+ T cells accounted for only a small percentage of T cells in the total T cell population (FIG. 11A). Since HHAT is only one MHC-I neoantigen, it was shown that HHAT neoantigen-specific CD8^+ T cells accounted for 10.6% in the total T cell population when stimulation with HHAT peptide (FIG. 11A), which accounted for 73% in the total tumor-reactive CD8^+ T cell population (FIG. 11B).
T cells were stimulated by various in vitro methods, such as tumor cells, peptides or DNA encoding neoantigens, etc. and induced to release cytokines. Stimulated T cells were resuspended in 100 μl of Cytofix/Cytoperm solution (BD Biosciences) per well for microwell plates (or 250 μl for tubes) and incubated for 20 min at 4° C. for cell fixation. Fixed cells were permeabilized by washing twice in 1× Perm/Wash buffer (BD Biosciences). Then the fixed/permeabilized cells were thoroughly resuspended in 50 μl of 1× Perm/Wash buffer containing 1 μl of phycoerythrin (PE)-conjugated IFN-γ antibody (Thermo Fisher Scientific) and incubate at 4° C. for 30 min in the dark. After that the cells were washed twice with 1× Perm/Wash buffer and ready for flow cytometric analysis.

[8] = system: CD8^+ T cells isolated from 136 TILs; assay: T-cell reactivity assay (ELISA): TMGs in MHC-I expressing Cos7 cells; type: cell-based, human; details: Cos7-A1, Cos7-B8, Cos7-C7 cells
Source text: To identify MHC-I neoantigens, MHC-I expressing Cos7 cells were transfected (Cos7-A1, Cos7-B8 and Cos7-C7) cells with 35 TMGs, respectively, followed by adding CD8^+ T cells isolated from 136 TILs. […] To exclude the possibility that other MHC-I and II molecules could also present neoantigens for T cell recognition, fibroblasts were generated from patient #136 tumor samples and used as APCs to express all MHC I and II molecules after IFN-γ pretreatment (FIG. 9C). The IFN-γ—pretreated fibroblasts were electroporated with in IVT mRNA of 136 mel TMGs, and then co-cultured with 136TILs.

Row | Compound | population of Tscm [1] | in vivo proliferation of CAR-T cells (in vivo imaging) [2] | memory phenotype of CAR-T cells [3] | metabolic reprogramming effect on CAR-T cells [3] | in vitro survival of CAR-T cells ([3]; IL-2 free condition) | oxidative metabolism and spare respiratory capacity [4] | Tscm and Tcm percentages in A2ESO TCR-T cells ([4]; 8 uM) | frequency of A2ESO TCR-T cells with polyfunctional cytokine secretion ([4]; ICS for IL-2, IFN-γ and TNF-α) | in vitro survival effect on A2ESO TCR-T cells ([4]; IL-2 free condition) | in vitro proliferation (CFSE) ([4]; stimulation with IL-2 or 231-ESO cells) | cytolytic activity of CD4^+ TCR-T cells [5] | in vivo anti-tumor function of A2ESO TCR-T cells [6] | memory phenotype of T cells after adoptive transfer ([6]; in vivo) | neoantigen-specific CD8^+ T cells in the total T cell population [7] [%] | share in the total tumor-reactive CD8^+ T cell population [7] [%] | activation of CD8^+ T cell response [8]
1 | NC1CC1c1ccccc1 (stereo not shown) [2-PCPA] | increased the population of Tscm in both CD4^+ and CD8^+ T cells | grew faster than control CAR-T cells | similarly increased the frequencies of less-differentiated memory T cells subsets | consistent with its effect on A2ESO TCR-T cells | survived better | increased oxidative metabolism and elevated spare respiratory capacity (SRC) | increased both Tscm and Tcm percentages | slightly increased | not seen | high proliferation potential | dramatically enhanced the cytolytic activity | significantly enhanced | maintained higher frequency of both Tscm and Tcm cells | – | – | –
2 | TSMLILSNLVFLEGNEVGKTYWNRI [HHAT] | – | – | – | – | – | – | – | – | – | – | – | – | – | 10.6 | 73 | HLA-A1 restricted neoantigen
